Laboratory results published in paper PMC6270165, “Synthesis and Biological Evaluation of 3-Benzisoxazolyl-4-indolylmaleimides as Potent, Selective Inhibitors of Glycogen Synthase Kinase-3β” (Molecules, 2013).

Assays:
GSK-3β = target: T1, GSK-3β (Homo sapiens, UniProt P49841); assay: GSK-3β kinase assay (Z'-LYTE Kinase Assay kit Ser/Thr 9 Peptide); type: biochemical; details: 50 nM enzyme, 30 μM ATP, 2 μM substrate peptide; triplicate; mean ± SE; read-out: GSK-3β inhibitory activity IC50 (nM) ± SE
T1 construct: GST (N, cleaved yes); made in house; host or cells: Escherichia coli BL21-Codon Plus (DE3)
Experimental: GSK3β belongs to CMGC family. Here, the other family members were used to evaluate the selectivity of GSK3β inhibitors, including PKC-epsilon (AGC family), JAK2 (TK family), Braf (TKL family), DRAK2 (CAMK family) and IKKβ (other family).The recombinant GST-GSK-3βprotein was expressed in Escherichia coli strain BL21-Codon Plus (DE3), purified by GSTrap affinity chromatography, and cleaved by thrombin. The GSK-3β kinase assay was carried out with the Z´-LYTETM Kinase Assay kit Ser/Thr 9 Peptide substrate (Invitrogen, Grand, NY, USA) in 10 μL reaction volume containing 50 nM enzyme, 30 μM ATP and 2 μM substrate peptide. Drak2 Proteins were presented by professor Jiang-ping Wu (Laboratory of Immunology, Research Centre, CHUM, Notre Dame Hospital, Pavilion DeSève). The Drak2 kinase reaction was performed in a final assay volume of 3.4 μL using the ADP-GLO Kinase Assay Kit (Promega, Madison, WI, USA), according the ADP-GLO protocol and read on an EnVision plate reader. The recombinant PKC-epsilon, IKKβ, and JAK2 with N-terminal His-tag were expressed using baculovirus expression system and purified with Ni-Beads. BRAF protein was from Carna Biosciences, Inc. (Kobe Port Island, Japan). And the related kinase reactions were performed in a final assay volume of 10 μL using the related HTRF Assay Kit (Cisbio, Codolet, France). Reactions were according the HTRF protocol and read on an EnVision plate reader. All reactions were carried out in triplicate. […] Data were expressed as mean ± SE.

[1] = system: Tau phosphorylation at Ser 396 in SH-SY5Y cells; assay: Aβ25-35-induced Tau phosphorylation (Ser396) in SH-SY5Y cells, Western blotting; type: cell-based, human; details: 100 nM, inhibitors 1 hour, then Aβ25–35 6 hours, Western blot
Experimental: It has been implicated that GSK-3β is involved in multiple cellular processes, and its ability to hyperphosphorylate Tau protein and induce neurofibrillary tangle was intensively studied. Therefore, the cell-based assay examining Tau phosphorylation at Serine 396 represents a direct functional assay to measure the cellular activity of GSK-3β inhibitors. Compounds 7c, 7f, 7j–l and 7o–q were tested for the ability to reduce Tau phosphorylation at Ser 396 in human neuroblastoma SH-SY5Y cells. LiCl, a well-known inhibitor of GSK-3β [24], was used as a positive control in this assay. […] The Aβ-induced Tau hyperphosphorylation results in neurofibrillary tangle formation, which plays an important role in Alzheimer’s disease. […] In addition, the predictions about these compounds’ brain permeability were performed using ADME module with Discovery Studio 2.1 software package.
SH-SY5Y human neuroblastoma cells were obtained from the American Type Culture Collection (ATCC, Manassas, VA, USA). Cells were cultured in 1:1 DMEM:Ham's F12 containing 10% (v/v) fetal bovine serum (HyClone, Logan, UT, USA), 1% penicillin, and 1% streptomycin at a humidified atmosphere with 5% CO2. The medium was changed every 2 days. […] Antigen-antibody complexes were detected by the ECL Kit.

T1 sequence (P49841 whole entry): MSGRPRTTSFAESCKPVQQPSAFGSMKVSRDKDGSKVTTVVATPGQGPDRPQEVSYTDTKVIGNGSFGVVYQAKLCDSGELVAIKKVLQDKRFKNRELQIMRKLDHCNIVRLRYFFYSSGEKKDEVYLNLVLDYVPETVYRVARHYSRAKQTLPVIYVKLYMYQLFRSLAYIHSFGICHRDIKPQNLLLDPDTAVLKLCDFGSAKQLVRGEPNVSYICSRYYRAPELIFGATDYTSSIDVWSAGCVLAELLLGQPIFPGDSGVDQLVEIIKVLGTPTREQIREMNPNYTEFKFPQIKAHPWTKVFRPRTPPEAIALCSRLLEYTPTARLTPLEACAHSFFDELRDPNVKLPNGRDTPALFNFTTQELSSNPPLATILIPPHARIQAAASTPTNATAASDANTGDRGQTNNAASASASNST

O=C1NC(=O)C(c2cn(CCCN3CCOCC3)c3cc(F)ccc23)=C1c1noc2ccccc12 [7f, 3-(Benzo[d]isoxazol-3-yl)-4-(6-fluoro-1-(3-morpholinopropyl)-1H-indol-3-yl)-1H-pyrrole-2,5-dione]
IC50 (GSK-3β): 127 ± 3.2 nM
Effect on Aβ25-35-induced Tau phosphorylation at Ser 396 [1]: obviously reduce
